Laboratory results published in patent US20210137948A1, “TREATMENT OF INFECTIONS CAUSED BY NEISSERIA GONOCOCCUS USING A HALOGENATED SALICYLANILIDE” (priority 2018, published 2021).
Like-named read-outs stand apart in the source and are kept apart here.

Key:
[1] = system: rats; settings: cited from earlier work; for LD50, median: median of the studies
[2] = system: mice; settings: cited from earlier work
[3] = system: Neisseria gonorrhoeae CDC panel consisting of 48 isolates; assay: Agar dilution MIC, CDC panel of 48 isolates (Example 2); assay type: cell-based; settings: for MIC: Neisseria gonorrhoeae, read-out: Minimal inhibitory concentration; for in vitro activity (in words): against N. gonococcus (N. gonorrhoeae), Example 2 conclusion
Method: Neisseria gonorrhoeae (Neisseria gonocossus) were tested for antimicrobial susceptibility using agar dilution as described by the Clinical and Laboratory Standards Institute (CLSI), see reference (4).
The concentrations tested for each compound encompass the reported interpretive breakpoints and consist of 8 or more doubling dilutions, ensuring that there is one dilution below the lowest value of QC.
GC agar base +1% defined growth supplement.
Initial screening strains: Neisseria gonorrhoeae CDC panel consisting of 48 isolates. The strains were provided by Clinical and Environmental Microbiology Branch, Division of Healthcare Quality Promotion, CDC (Atlanta, US).
Dilution scheme for reference method: Prepare intermediate 100× antimicrobial agent solutions by making successive serial twofold dilutions. Then, add one part of the 100× antimicrobial solution to […] of molten agar. Plates containing no antimicrobial agent solutions are made for use as growth controls. It is important that no longer than one hour elapses between the time that the stock solution is thawed, the dilutions are prepared and added to the base medium and the plates are poured, see reference (5).
• Add appropriate dilutions of antimicrobial solution to molten test agars that have been allowed to equilibrate in a water bath to 50° C. • Mix the agar and antimicrobial solution thoroughly and pour (20 mL) into Petri dishes on a level surface. Pour quickly after mixing to prevent cooling and partial solidification in the mixing container. Avoid generating bubbles when mixing. • Allow the agar to solidify at room temperature and store them in sealed plastic bags at 2 to 8° C. for up to five days. Preferably use with 24 hours. • Allow plates stored at 2 to 8° C. to equilibrate to room temperature before use. Make certain that the agar surface is dry before inoculating the plates. If necessary, place the plates in an incubator or laminar flow hood for approximately 30 minutes with their lids ajar to hasten drying of the agar surface.
Inoculum preparation: Prepare a standardized inoculum for the agar dilution method by suspending isolated colonies of Neisseria gonorrhoeae selected from an 18-24 hour-old chocolate agar plate directly in Mueller Hinton Broth (MHB) to achieve the density equivalent to a 0.5 McFarland standard and adjusted to obtain a cell density of ˜1-2×10^8 CFU/mL. For N. gonorrhoeae, the McFarland solutions are made at a reading of ˜0.80 in densitometer (Grant Instruments DEN-1B Densitometer) because these values have been evaluated and correspond to the desired CFU/mL count.
Dilution of inoculum suspension: Cultures adjusted to the 0.5 McFarland standard contain approximately 1 to 2×10^8 CFU/mL with most species, and the final inoculum required is 10^4 CFU per spot. When using replicators with 3-mm pins that deliver ˜2.5 μL, dilute the 0.5 McFarland suspension 1:10 in sterile MHB to obtain a concentration of 10^7 CFU/mL. The final inoculum on the agar will be approximately 10^4 CFU per spot. Use the adjusted suspensions for final inoculation within 60 minutes of preparation, see reference (5).
The following procedure was followed: • Arrange the tubes containing the adjusted and diluted bacterial suspensions (10^7 CFU/mL) in order in a rack. Place an aliquot of each well-mixed suspension into the corresponding well in the replicator inoculum block (if being used). • Mark the agar plates for orientation of the inoculum spots. • Apply an aliquot of each inoculum (2.5 μL) to the agar surface, either with an inocula-replicating device or pipette, to obtain a final concentration of ˜10^4 CFU/spot. • Inoculate a growth-control plate (no antimicrobial agent) first and then, starting with the lowest concentration, inoculate the plates containing the different antimicrobial concentrations. […]

[4] = system: rabbits; settings: p.o.; cited from earlier work
[5] = Neisseria gonorrhoeae strain CDC # 165
[6] = Neisseria gonorrhoeae strain CDC # 166
[7] = Neisseria gonorrhoeae strain CDC # 167
[8] = Neisseria gonorrhoeae strain CDC # 169
[9] = Neisseria gonorrhoeae strain CDC # 170
[10] = Neisseria gonorrhoeae strain CDC # 171
[11] = Neisseria gonorrhoeae strain CDC # 172
[12] = Neisseria gonorrhoeae strain CDC # 173
[13] = Neisseria gonorrhoeae strain CDC # 174
[14] = Neisseria gonorrhoeae strain CDC # 175
[15] = Neisseria gonorrhoeae strain CDC # 176
[16] = Neisseria gonorrhoeae strain CDC # 177
[17] = Neisseria gonorrhoeae strain CDC # 178
[18] = Neisseria gonorrhoeae strain CDC # 179
[19] = Neisseria gonorrhoeae strain CDC # 180
[20] = Neisseria gonorrhoeae strain CDC # 181
[21] = Neisseria gonorrhoeae strain CDC # 182
[22] = Neisseria gonorrhoeae strain CDC # 183
[23] = Neisseria gonorrhoeae strain CDC # 184
[24] = Neisseria gonorrhoeae strain CDC # 185
[25] = Neisseria gonorrhoeae strain CDC # 186
[26] = Neisseria gonorrhoeae strain CDC # 187
[27] = Neisseria gonorrhoeae strain CDC # 188
[28] = Neisseria gonorrhoeae strain CDC # 189
[29] = Neisseria gonorrhoeae strain CDC # 190
[30] = Neisseria gonorrhoeae strain CDC # 191
[31] = Neisseria gonorrhoeae strain CDC # 192
[32] = Neisseria gonorrhoeae strain CDC # 193
[33] = Neisseria gonorrhoeae strain CDC # 194
[34] = Neisseria gonorrhoeae strain CDC # 195
[35] = Neisseria gonorrhoeae strain CDC # 196
[36] = Neisseria gonorrhoeae strain CDC # 198
[37] = Neisseria gonorrhoeae strain CDC # 199
[38] = Neisseria gonorrhoeae strain CDC # 200
[39] = Neisseria gonorrhoeae strain CDC # 201
[40] = Neisseria gonorrhoeae strain CDC # 202
[41] = Neisseria gonorrhoeae strain CDC # 203
[42] = Neisseria gonorrhoeae strain CDC # 204
[43] = Neisseria gonorrhoeae strain CDC # 205
[44] = Neisseria gonorrhoeae strain CDC # 206
[45] = Neisseria gonorrhoeae strain CDC # 207
[46] = Neisseria gonorrhoeae strain CDC # 208
[47] = Neisseria gonorrhoeae strain CDC # 209
[48] = Neisseria gonorrhoeae strain CDC # 210
[49] = Neisseria gonorrhoeae strain CDC # 211
[50] = Neisseria gonorrhoeae strain CDC # 212
[51] = Neisseria gonorrhoeae strain CDC # 213
[52] = Neisseria gonorrhoeae strain CDC # 214

Cc1cc(C(C#N)c2ccc(Cl)cc2)c(Cl)cc1NC(=O)c1cc(I)cc(I)c1O (centres unmarked) [Closantel, closantel]
302 mg/kg: LD50, median ([1]; p.o.)
67 mg/kg: LD50 ([1]; s.c.)
4 µg/mL: MIC [3, 16]
≤ 0.25 µg/mL: MIC [3, 6] | MIC [3, 7] | MIC [3, 8] | MIC [3, 9] | MIC [3, 10] | MIC [3, 11] | MIC [3, 13] | MIC [3, 14] | MIC [3, 15] | MIC [3, 17] | MIC [3, 18] | MIC [3, 19] | MIC [3, 20] | MIC [3, 21] | MIC [3, 22] | MIC [3, 23] | MIC [3, 24] | MIC [3, 25] | MIC [3, 26] | MIC [3, 27] | MIC [3, 28] | MIC [3, 29] | MIC [3, 30] | MIC [3, 31] | MIC [3, 32] | MIC [3, 33] | MIC [3, 34] | MIC [3, 35] | MIC [3, 36] | MIC [3, 37] | MIC [3, 38] | MIC [3, 39] | MIC [3, 40] | MIC [3, 41] | MIC [3, 43] | MIC [3, 44] | MIC [3, 45] | MIC [3, 46] | MIC [3, 47] | MIC [3, 48] | MIC [3, 49] | MIC [3, 50] | MIC [3, 51] | MIC [3, 52]
57 mg/kg: LD50 ([2]; i.m.)
Good in vitro activity: in vitro activity (in words) [3]
0.5 µg/mL: MIC [3, 12] | MIC [3, 42]
8 µg/mL: MIC [3, 5]
331 mg/kg: LD50 ([2]; p.o.)
262 to 342 mg/kg: LD50 ([1]; p.o.)

O=C(Nc1cc(Cl)cc(Cl)c1O)c1c(O)c(Cl)cc(Cl)c1Cl [Oxyclosanide, oxyclozanide]
2250 mg/kg: LD50, median ([1]; p.o.)
Good in vitro activity: in vitro activity (in words) [3]
≤ 0.25 µg/mL: MIC [3, 5] | MIC [3, 6] | MIC [3, 7] | MIC [3, 8] | MIC [3, 9] | MIC [3, 10] | MIC [3, 11] | MIC [3, 12] | MIC [3, 13] | MIC [3, 14] | MIC [3, 15] | MIC [3, 16] | MIC [3, 17] | MIC [3, 18] | MIC [3, 19] | MIC [3, 20] | MIC [3, 21] | MIC [3, 22] | MIC [3, 23] | MIC [3, 24] | MIC [3, 25] | MIC [3, 26] | MIC [3, 27] | MIC [3, 28] | MIC [3, 29] | MIC [3, 30] | MIC [3, 31] | MIC [3, 32] | MIC [3, 33] | MIC [3, 34] | MIC [3, 35] | MIC [3, 36] | MIC [3, 37] | MIC [3, 38] | MIC [3, 39] | MIC [3, 40] | MIC [3, 41] | MIC [3, 42] | MIC [3, 43] | MIC [3, 44] | MIC [3, 45] | MIC [3, 46] | MIC [3, 47] | MIC [3, 48] | MIC [3, 49] | MIC [3, 50] | MIC [3, 51] | MIC [3, 52]
300 mg/kg: LD50 ([2]; p.o.)
3200 mg/kg: LD50 [4]
980 to 3519 mg/kg: LD50 ([1]; p.o.)
